Values after ≈ are worked out from the molar mass of the structure shown.
Columns and labels:
[1] = tested on: B. anthracis; test: microbe, parasite or virus in culture; type: cell-based; details: for MIC50 / MIC90: Bacillus anthracis
[2] = tested on: B. anthracis Ames NR3838 spores; set-up: species or system New Zealand White rabbits; details: rabbit, in vivo
[3] = tested on: B. anthracis Sterne; type: cell-based, Bacillus anthracis

Compound | MIC Range [1] | MIC50 [1] | MIC90 [1] | histopathology lesions ([2]; 12.5 mg/kg) | efficacious dose in rabbits ([2]; iv) | effect of washing on preformed supramolecular structures [3] | formation of supramolecular structures [3]
C[C@H]1c2cccc(O)c2C(=O)C2=C(O)[C@]3(O)C(=O)C(C(N)=O)=C(O)[C@@H](N(C)C)[C@@H]3[C@@H](O)[C@@H]21 [Doxycycline] | ≤0.008 to 0.12 µg/mL | 0.03 µg/mL (≈ 0.0675 µM) | 0.06 µg/mL (≈ 0.135 µM) |  |  |  | 
C[C@@H](O)[C@H]1C(=O)N2C(C(=O)O)=C(SCCN=CN)C[C@H]12 [Imipenem] | 0.03 to 1 µg/mL | 0.06 µg/mL (≈ 0.2 µM) | 0.12 µg/mL (≈ 0.401 µM) |  |  |  | 
O=C(O)c1cn(C2CC2)c2cc(N3CCNCC3)c(F)cc2c1=O [Ciprofloxacin] | 0.06 to 4 µg/mL | 0.12 µg/mL (≈ 0.362 µM) | 0.5 µg/mL (≈ 1.51 µM) |  |  |  | 
C[C@H]1COc2c(N3CCN(C)CC3)c(F)cc3c(=O)c(C(=O)O)cn1c23 [Levofloxacin] | 0.06 to 1 µg/mL | 0.12 µg/mL (≈ 0.332 µM) | 0.5 µg/mL (≈ 1.38 µM) | mitigated lesions | 12.5 mg/kg |  | 
Lys(Bodipy FL)10-teixobactin |  |  |  |  |  | no apparent effect | apparent

— paper PMC10996807 (Research Square, 2024)
